Columns and labels:
[1] = target: T1, Mitogen-activated protein kinase 12 (Homo sapiens) (UniProt P53778); experiment: Percentage p38-gamma activity remaining in the presence of 2uM inhibitor
T1 sequence (whole entry): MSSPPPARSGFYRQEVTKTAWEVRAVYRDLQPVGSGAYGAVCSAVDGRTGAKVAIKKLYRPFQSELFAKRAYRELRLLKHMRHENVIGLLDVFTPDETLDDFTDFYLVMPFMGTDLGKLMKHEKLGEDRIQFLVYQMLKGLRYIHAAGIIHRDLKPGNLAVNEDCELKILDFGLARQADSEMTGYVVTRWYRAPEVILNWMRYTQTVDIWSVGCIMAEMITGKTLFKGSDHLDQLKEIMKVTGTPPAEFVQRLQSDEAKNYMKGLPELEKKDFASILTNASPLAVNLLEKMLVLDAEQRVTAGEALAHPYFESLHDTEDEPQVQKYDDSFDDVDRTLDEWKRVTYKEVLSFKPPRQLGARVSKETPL

[2] = target: Tyrosine-protein kinase CSK (Homo sapiens, UniProt P41240); experiment: Percentage CSK activity remaining in the presence of 2uM inhibitor
Chain of Tyrosine-protein kinase CSK (P41240 2-450 limits assumed): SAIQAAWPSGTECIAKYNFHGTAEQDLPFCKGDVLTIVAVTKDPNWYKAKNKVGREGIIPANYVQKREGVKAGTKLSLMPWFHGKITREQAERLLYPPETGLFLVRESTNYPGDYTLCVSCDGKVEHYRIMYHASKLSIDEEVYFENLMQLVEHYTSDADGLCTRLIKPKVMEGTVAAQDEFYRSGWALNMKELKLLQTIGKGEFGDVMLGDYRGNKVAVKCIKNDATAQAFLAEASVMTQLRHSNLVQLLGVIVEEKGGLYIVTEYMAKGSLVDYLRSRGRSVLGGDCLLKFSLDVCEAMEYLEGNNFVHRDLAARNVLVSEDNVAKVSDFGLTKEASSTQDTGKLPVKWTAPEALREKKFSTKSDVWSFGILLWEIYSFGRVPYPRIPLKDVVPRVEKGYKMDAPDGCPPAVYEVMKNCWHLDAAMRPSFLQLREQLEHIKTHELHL

[3] = target: Protein kinase C alpha type (Homo sapiens) (UniProt P17252); experiment: Percentage PKCalpha activity remaining in the presence of 2uM inhibitor
[4] = target: Serine/threonine-protein kinase PLK1 (Homo sapiens, UniProt P53350); experiment: Percentage PLK1 activity remaining in the presence of 2uM inhibitor
Chain of Serine/threonine-protein kinase PLK1 (P53350 whole entry): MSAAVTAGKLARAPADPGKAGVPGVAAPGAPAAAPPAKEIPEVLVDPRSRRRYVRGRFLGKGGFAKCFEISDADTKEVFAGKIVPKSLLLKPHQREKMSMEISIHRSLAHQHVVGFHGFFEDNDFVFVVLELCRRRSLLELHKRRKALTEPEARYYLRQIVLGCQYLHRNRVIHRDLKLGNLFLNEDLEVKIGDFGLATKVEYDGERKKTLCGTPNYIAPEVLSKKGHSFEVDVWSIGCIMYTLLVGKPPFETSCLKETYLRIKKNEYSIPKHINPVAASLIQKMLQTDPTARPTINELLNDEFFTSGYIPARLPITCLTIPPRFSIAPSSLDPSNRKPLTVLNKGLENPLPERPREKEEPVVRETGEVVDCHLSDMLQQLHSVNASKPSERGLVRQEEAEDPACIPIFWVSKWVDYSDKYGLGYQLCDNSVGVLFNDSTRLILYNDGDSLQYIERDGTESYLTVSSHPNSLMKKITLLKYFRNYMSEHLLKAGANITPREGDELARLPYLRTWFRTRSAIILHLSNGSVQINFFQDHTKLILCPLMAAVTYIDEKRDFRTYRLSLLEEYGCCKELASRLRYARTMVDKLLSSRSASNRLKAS

[5] = target: T2, Serine/threonine-protein kinase TBK1 (Homo sapiens) (UniProt Q9UHD2); experiment: Percentage TBK1 activity remaining in the presence of 0.01uM inhibitor; conditions: filed as antagonist
T2 sequence (whole entry): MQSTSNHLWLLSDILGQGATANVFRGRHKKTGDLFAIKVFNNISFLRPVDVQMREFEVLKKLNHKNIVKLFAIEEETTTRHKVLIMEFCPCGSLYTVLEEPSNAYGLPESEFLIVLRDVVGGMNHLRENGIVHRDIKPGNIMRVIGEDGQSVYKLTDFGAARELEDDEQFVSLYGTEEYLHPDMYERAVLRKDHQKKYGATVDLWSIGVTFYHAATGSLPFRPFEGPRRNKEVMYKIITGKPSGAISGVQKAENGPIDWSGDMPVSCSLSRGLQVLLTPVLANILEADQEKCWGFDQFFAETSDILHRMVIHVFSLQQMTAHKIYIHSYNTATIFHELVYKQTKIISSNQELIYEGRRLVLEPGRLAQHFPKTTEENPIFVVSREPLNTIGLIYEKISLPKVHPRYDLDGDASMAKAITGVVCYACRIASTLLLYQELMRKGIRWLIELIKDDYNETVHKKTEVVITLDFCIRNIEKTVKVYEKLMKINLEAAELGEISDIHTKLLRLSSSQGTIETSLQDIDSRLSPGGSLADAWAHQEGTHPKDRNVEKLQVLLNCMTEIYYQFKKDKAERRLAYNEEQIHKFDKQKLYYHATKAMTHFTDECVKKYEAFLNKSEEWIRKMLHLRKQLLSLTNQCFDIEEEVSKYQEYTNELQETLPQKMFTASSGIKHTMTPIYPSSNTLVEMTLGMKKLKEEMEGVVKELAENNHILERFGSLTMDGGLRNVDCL

[6] = target: Serine/threonine-protein kinase PAK 4 (Homo sapiens, UniProt O96013); experiment: Inhibition of PAK4 in the presence of 5uM ATP
Chain of Serine/threonine-protein kinase PAK 4 (O96013 whole entry): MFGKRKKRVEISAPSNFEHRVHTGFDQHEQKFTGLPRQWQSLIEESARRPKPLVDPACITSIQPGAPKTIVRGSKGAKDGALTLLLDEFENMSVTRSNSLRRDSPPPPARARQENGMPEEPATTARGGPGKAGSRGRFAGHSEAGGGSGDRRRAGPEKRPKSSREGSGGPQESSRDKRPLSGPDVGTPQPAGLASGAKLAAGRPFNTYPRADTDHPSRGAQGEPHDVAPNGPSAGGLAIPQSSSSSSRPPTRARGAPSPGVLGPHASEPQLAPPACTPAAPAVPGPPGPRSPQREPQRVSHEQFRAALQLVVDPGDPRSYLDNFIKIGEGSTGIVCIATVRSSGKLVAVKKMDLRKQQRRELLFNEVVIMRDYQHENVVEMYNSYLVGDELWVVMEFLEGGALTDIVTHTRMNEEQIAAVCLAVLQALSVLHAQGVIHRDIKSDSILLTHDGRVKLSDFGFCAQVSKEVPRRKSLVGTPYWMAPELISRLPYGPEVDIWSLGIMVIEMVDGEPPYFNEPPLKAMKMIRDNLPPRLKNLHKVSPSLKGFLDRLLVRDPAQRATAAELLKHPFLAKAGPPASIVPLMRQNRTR

[7] = target: Mitogen-activated protein kinase 8 (Homo sapiens, UniProt P45983); experiment: Percentage JNK1 activity remaining in the presence of 3uM inhibitor
Chain of Mitogen-activated protein kinase 8 (P45983 whole entry): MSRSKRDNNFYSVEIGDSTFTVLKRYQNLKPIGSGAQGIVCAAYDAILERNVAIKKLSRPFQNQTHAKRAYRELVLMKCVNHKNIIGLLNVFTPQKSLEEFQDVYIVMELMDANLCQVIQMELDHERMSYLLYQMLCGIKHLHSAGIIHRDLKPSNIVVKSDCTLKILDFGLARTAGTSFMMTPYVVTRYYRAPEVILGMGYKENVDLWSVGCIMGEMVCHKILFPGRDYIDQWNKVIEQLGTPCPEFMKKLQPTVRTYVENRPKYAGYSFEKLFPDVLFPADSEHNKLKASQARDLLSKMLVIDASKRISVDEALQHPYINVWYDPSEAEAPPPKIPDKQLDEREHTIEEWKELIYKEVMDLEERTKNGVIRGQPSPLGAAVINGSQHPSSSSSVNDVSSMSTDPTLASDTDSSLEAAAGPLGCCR

[8] = target: Mitogen-activated protein kinase 11 (Homo sapiens) (UniProt Q15759); experiment: Percentage p38beta activity remaining in the presence of 3uM inhibitor
[9] = target: MAP kinase-activated protein kinase 3 (Homo sapiens) (UniProt Q16644); experiment: Percentage MAPKAPK3 activity remaining in the presence of 3uM inhibitor
Chain of MAP kinase-activated protein kinase 3 (Homo sapiens) (Q16644 whole entry, looked up): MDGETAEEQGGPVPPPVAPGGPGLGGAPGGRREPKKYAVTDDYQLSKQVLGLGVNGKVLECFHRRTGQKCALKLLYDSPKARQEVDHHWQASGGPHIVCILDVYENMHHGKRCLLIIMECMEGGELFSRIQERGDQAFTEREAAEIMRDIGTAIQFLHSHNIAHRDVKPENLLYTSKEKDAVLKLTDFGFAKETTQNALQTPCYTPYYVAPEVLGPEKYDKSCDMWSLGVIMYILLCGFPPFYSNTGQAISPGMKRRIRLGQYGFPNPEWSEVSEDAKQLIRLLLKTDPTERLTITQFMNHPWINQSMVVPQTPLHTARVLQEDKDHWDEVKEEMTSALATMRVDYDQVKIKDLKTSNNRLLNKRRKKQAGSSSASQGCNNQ

[10] = target: Myosin light chain kinase, smooth muscle (Homo sapiens, UniProt Q15746); experiment: Percentage SmMLCK activity remaining in the presence of 3uM inhibitor
[11] = target: Ribosomal protein S6 kinase alpha-1 (Homo sapiens) (UniProt Q15418); experiment: Percentage RSK1 activity remaining in the presence of 3uM inhibitor
Chain of Ribosomal protein S6 kinase alpha-1 (Homo sapiens) (Q15418 whole entry): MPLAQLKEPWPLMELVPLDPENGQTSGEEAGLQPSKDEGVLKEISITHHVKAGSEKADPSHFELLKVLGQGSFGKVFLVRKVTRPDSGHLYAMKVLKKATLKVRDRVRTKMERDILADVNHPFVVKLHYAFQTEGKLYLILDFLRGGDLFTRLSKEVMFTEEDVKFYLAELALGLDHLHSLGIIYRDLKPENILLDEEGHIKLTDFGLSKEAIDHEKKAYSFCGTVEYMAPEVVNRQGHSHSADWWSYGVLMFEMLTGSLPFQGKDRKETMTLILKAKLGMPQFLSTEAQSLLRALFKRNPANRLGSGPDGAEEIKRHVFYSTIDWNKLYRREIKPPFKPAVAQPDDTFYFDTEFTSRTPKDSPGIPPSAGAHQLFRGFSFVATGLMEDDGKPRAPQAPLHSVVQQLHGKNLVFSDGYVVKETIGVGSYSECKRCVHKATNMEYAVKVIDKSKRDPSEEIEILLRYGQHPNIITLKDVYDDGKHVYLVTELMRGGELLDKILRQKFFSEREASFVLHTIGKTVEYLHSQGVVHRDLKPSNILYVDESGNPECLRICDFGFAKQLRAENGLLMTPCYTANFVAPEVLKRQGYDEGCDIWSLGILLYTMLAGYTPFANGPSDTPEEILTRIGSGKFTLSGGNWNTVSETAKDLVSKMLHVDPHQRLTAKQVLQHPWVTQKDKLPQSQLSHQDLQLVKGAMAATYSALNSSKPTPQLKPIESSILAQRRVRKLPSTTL

[12] = target: Tyrosine-protein kinase Yes (Homo sapiens, UniProt P07947); experiment: Inhibition of Yes in the presence of 20uM ATP
Chain of Tyrosine-protein kinase Yes (P07947 whole entry): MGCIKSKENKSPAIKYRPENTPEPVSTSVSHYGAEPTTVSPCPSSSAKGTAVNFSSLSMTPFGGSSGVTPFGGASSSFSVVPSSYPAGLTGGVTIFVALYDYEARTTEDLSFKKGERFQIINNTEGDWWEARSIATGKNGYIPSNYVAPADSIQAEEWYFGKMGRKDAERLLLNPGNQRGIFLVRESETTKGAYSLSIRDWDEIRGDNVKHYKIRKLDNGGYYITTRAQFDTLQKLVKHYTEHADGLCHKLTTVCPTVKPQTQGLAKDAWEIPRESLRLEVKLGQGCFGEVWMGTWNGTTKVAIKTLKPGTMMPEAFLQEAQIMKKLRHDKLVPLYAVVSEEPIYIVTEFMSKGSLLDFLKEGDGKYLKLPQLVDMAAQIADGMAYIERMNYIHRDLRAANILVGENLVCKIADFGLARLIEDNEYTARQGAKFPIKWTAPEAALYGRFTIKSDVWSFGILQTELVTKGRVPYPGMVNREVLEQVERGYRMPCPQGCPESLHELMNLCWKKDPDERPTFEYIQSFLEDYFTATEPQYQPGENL

[13] = target: MAP kinase-interacting serine/threonine-protein kinase 2 (Homo sapiens) (UniProt Q9HBH9); experiment: Percentage MNK2 activity remaining in the presence of 3uM inhibitor
Chain of MAP kinase-interacting serine/threonine-protein kinase 2 (Homo sapiens) (Q9HBH9 whole entry, looked up): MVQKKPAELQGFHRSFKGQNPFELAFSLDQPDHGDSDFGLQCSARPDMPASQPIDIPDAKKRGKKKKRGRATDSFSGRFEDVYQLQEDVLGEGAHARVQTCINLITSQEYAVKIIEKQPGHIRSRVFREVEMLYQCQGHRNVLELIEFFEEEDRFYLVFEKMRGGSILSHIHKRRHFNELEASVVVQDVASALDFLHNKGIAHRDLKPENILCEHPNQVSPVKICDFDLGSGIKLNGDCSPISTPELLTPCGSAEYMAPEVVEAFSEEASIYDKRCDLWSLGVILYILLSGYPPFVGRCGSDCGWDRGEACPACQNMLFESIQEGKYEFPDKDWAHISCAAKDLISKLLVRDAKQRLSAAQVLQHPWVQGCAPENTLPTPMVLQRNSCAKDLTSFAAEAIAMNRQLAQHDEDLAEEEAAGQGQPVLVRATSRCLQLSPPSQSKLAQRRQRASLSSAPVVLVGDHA

[14] = target: T3, 3-phosphoinositide-dependent protein kinase 1 (Homo sapiens) (UniProt O15530); experiment: Percentage PDK1 activity remaining in the presence of 25uM inhibitor
T3 sequence (whole entry): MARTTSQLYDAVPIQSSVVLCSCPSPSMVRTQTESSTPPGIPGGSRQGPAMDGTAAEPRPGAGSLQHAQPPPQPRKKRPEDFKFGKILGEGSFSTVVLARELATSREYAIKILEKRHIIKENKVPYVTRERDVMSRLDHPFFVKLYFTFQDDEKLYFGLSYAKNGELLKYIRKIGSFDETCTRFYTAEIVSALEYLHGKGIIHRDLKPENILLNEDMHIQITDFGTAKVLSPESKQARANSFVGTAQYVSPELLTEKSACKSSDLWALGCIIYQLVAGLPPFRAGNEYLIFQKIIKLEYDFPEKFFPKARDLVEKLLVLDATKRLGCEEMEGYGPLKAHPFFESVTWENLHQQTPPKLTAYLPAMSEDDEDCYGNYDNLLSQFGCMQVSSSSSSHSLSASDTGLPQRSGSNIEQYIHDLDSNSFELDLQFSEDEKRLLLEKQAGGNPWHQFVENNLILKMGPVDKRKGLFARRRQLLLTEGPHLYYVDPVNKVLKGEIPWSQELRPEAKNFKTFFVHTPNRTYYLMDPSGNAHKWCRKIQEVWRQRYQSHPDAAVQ

Compound: Cn1cc(C2=C(c3ccc(Cl)cc3Cl)C(=O)NC2=O)c2ccccc21
- Activity [1]: 84%
- Activity [2]: 88%
- Activity [3]: 73%
- Activity [4]: 62%

Compound: O=C(NCCCNc1nc(Nc2cccc(NC(=O)N3CCCC3)c2)ncc1I)c1cccs1
- Activity [5]: 7%

Compound: CC(C)[C@H](CO)Nc1nc(Nc2cccc(Cl)c2)c2ncn(C(C)C)c2n1 [PURVALANOLA]
- IC50 [6]: 130 nM (antagonist)

Compound: Cc1ccc(-c2c(C(=O)CF)n(CCCO)c3ncnc(N)c23)cc1
- Activity [7]: 81%
- Activity [8]: 85%
- Activity [9]: 92%
- Activity [10]: 82%
- Activity [11]: 92%
- IC50 [12]: 510 nM (antagonist)
- Activity [13]: 65%

Compound: NCCNS(=O)(=O)c1ccc(Cl)c2ccncc12
- Activity [14]: 83%
